According to ChEMBL document CHEMBL4017450, “Synthesis and carbonic anhydrase inhibition of a series of SLC-0111 analogs” (Bioorg Med Chem, 2017):

Assays:
[1] = biological target: Carbonic anhydrase 9 (Homo sapiens, UniProt Q16790)
Description: Inhibition of human recombinant carbonic anhydrase 9 preincubated for 15 mins prior to testing measured for 10 to 100 secs by phenol red-based stopped-flow CO2 hydration assay

[2] = biological target: Carbonic anhydrase 12 (Homo sapiens, UniProt O43570); test: Inhibition of human recombinant carbonic anhydrase 12 preincubated for 15 mins prior to testing measured for 10 to 100 secs by phenol red-based stopped-flow CO2 hydration assay
[3] = biological target: Carbonic anhydrase 2 (Homo sapiens, UniProt P00918); test: Inhibition of human recombinant carbonic anhydrase 2 preincubated for 15 mins prior to testing measured for 10 to 100 secs by phenol red-based stopped-flow CO2 hydration assay

Sequence of Carbonic anhydrase 12 (O43570 whole entry): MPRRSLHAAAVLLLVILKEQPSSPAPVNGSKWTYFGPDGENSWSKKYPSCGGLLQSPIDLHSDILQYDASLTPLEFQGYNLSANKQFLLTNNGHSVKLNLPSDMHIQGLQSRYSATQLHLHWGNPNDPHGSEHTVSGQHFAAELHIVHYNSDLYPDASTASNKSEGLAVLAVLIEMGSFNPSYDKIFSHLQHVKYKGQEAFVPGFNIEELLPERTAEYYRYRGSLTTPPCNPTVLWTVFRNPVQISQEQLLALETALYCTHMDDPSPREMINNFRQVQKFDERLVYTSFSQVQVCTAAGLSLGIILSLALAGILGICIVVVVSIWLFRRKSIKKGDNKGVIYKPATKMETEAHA

Ki [1] [nM] | Ki [2] [nM] | Ki [3] [nM] | Compound
7.7 | – | – | NS(=O)(=O)c1ccc(NC(=O)Nc2ccccc2F)cc1
178 | – | – | CC(=O)c1ccc(NC(=O)Nc2cccc(S(N)(=O)=O)c2)cc1
7.6 | – | – | NS(=O)(=O)c1ccc(NC(=O)Nc2cc(F)c(F)cc2F)cc1
8.2 | – | – | NS(=O)(=O)c1ccc(NC(=O)Nc2cc([N+](=O)[O-])ccc2Cl)cc1
8.9 | – | – | NS(=O)(=O)c1ccc(NC(=O)Nc2cc(Cl)ccc2Cl)cc1
219 | – | – | NS(=O)(=O)c1cccc(NC(=O)Nc2ccc(F)cc2)c1
162 | – | – | NS(=O)(=O)c1cccc(NC(=O)Nc2c(F)c(F)c(F)c(F)c2F)c1

The remaining lines, values behind:

Compound | Ki [1] [nM] | Ki [2] [nM] | Ki [3] [nM]
NS(=O)(=O)c1ccc(NC(=O)Nc2cccc(Cl)c2)cc1 | 8.4 | 8.5 | 10
NS(=O)(=O)c1ccc(NC(=O)Nc2cc(C(F)(F)F)ccc2F)cc1 | 7.4 | – | –
NS(=O)(=O)c1ccc(NC(=O)Nc2ccc(Cl)cc2F)cc1 | 5.1 | – | –
NS(=O)(=O)c1ccc(NC(=O)Nc2ccc(F)c(F)c2F)cc1 | 9.6 | – | –
NS(=O)(=O)c1cccc(NC(=O)Nc2ccc(I)cc2)c1 | 116 | – | –
CC(C)c1ccccc1NC(=O)Nc1cccc(S(N)(=O)=O)c1 | 349 | – | –
NS(=O)(=O)c1cccc(NC(=O)Nc2cccc([N+](=O)[O-])c2)c1 | 154 | – | –
NS(=O)(=O)c1ccc(NC(=O)Nc2ccc(F)cc2F)cc1 | 3.7 | – | –
